We go through 2 substances from US20010056063A1, “METHOD OF TREATING OR PREVENTING TYPE 1 DIABETES BY ORAL ADMINISTRATION OF INSULIN” (priority 1990, published 2001).

“Also recorded” adds a separate entry of the source.

Assay type in all cases: in vivo, mouse
The subject of experiment [1] is NOD mice. Briefly: Treatment of initial stages of diabetes in hyperglycemic NOD mice (Example 5). The settings on record: oral and aerosol, 0 to 1 mg, hyperglycemic NOD mice from weeks 12-20. On the procedure: Insulin (0 to 1 mg as in Examples 1 and 2) will be administered to NOD mice which are suffering from hyperglycemia in an oral and aerosol form. The treatments will begin by weeks 12 -20 of age, by which the serum glucose levels are at hyperglycemic concentrations in a certain percentage of animals prior to onset of diabetes.

The subject of experiment [2] is NOD mice. Briefly: Aerosol administration of insulin on diabetes in NOD mice (Example 4). The settings on record: aerosol by nebulizer, 0 to 1 mg. On the procedure: Insulin (0 to 1 mg as in Examples 1 and 2) will be administered to NOD mice as described above in Examples 1 and 2 except in aerosol form by nebulizer.
Experiment [3] has as its system NOD (non-obese diabetic) mice. Briefly: Spontaneous diabetes in NOD mice after oral feeding (Examples 1 and 3). To be noted: for development of diabetes: FIG. 1. An excerpt:
NOD (non-obese diabetic mice) were obtained from Taconic Laboratories (Germantown, Mass.) at 4 weeks of age. There were a total of 30 animals in each of the groups mentioned below at the beginning of the experiment. At 4 ½ weeks of age, animals were orally administered Porcine insulin (Novo Laboratories, Danbury, Conn.). Each animal received two treatments orally twice a week until 9 weeks of age. The mice were fed either saline (control) or 10 micrograms, 100 micrograms, or 1 milligram of Porcine insulin. The animals were fed (gavaged) with an 18 gauge ball-point needle (Popper and Sons, Inc., New Hyde Park, N.Y.). Beginning at 10 weeks the animals were then fed once a week for a total of 33 weeks. Beginning at 12 weeks the urine was tested weekly for the presence of glucose using Glucosuria test tape (Eli Lilly, Indianapolis, Ind.). If an animal tested 3+or higher on the glucose urine test, a serum sample was taken and blood glucose measured using a glucose analyzer (Beckman). If the blood glucose was 220 or higher, the animals were classified as diabetic and then sacrificed. An identical experiment to Example 1 was performed in which NOD mice (14-17 per group) were fed one homogenized pancreas derived from Lewis rats in 0.5 mls PBS. […] Nonetheless, the effect is not as dramatic and complete as that seen in the animals fed insulin.

Experiment [4] has as its system NOD mice. Briefly: Glucose post oral insulin in fasting 7 week NOD mice (Example 2). To be noted: for endocrinologic effect on blood glucose: oral 1 mg, over 24 hours. On the procedure:
In order to determine whether any endocrinologic (i.e. direct lowering of blood sugar) effects occurred following the feeding of insulin, 7 week old NOD mice (5 mice per group) were fed 1 mg of porcine insulin or 1 mg of myelin basic protein (obtained from Pel Freez, Rogers, Ark.) as a control protein. Blood glucose was then measured over the next 24 hour period. As a positive control, a separate group of animals were injected subcutaneously with 20 micrograms of Porcine insulin. All animals were kept in the fasting state.

The test system of experiment [5] is NOD mice. As to the kind of experiment: Insulitis in insulin-fed NOD mice (preliminary experiments). To be noted: fed 1 mg, vs PBS-fed NOD mice; data not shown. From the text:
Therefore, oral administration of insulin to NOD mice appeared to be affecting the infiltration of immune system cells into the pancreas and thus halting disease progression by preserving beta cell function.

Take Porcine insulin: the beta cell function entry in the experiment on NOD mice [1] is given as “preservation of beta cell function”. Also, the serum glucose concentrations result in the experiment on NOD mice [1] was “reduction in serum glucose concentrations to near normal levels”. The “prevention of symptoms (hyperglycemia) of Type 1 diabetes” value in the experiment with NOD mice [2] is listed as “effective in preventing the manifestation of symptoms”. For the same substance, in experiment [3] (oral 1 mg (highest dose)), the “treated animals that failed to develop diabetes” value is 100%. Further, the development of diabetes entry in experiment [3] (oral 1 mg, twice a week until 9 weeks of age, then once a week) is given as “none of the mice went on to develop diabetes; also recorded: no diabetes developed; also recorded: None of the animals developed diabetes”; in experiment [3] (oral 10 microgram group, dose response fashion) it was “diabetes developed”; in experiment [3] (oral 100 microgram group, dose response fashion) it was “diabetes developed”. Further, the “incidence / development of diabetes” value in experiment [3] (oral, all doses tested (10 micrograms, 100 micrograms, 1 mg)) is “lower incidence of diabetes at all doses; also recorded: reduced the numbers of these mice which subsequently went on to develop diabetes”. Besides, the “endocrinologic effect on blood glucose” value in the experiment with NOD mice [4] (FIG. 2) was “no drop in the blood glucose; also recorded: no endocrinologic (metabolic) effects”. Also, the “period over which the glucose decrease persisted” value in the experiment on NOD mice [4] (subcutaneous 20 micrograms) amounted to 4 h. For the same substance, the “decrease in blood glucose level” value in the experiment with NOD mice [4] (subcutaneous 20 micrograms, FIG. 2) is “approximately 80 mg %”. In addition, the “inflammatory immune system cells surrounding the pancreas (insulitis)” value with NOD mice [5] is recorded as “fewer inflammatory immune system cells surrounding the pancreas”.

Turning to myelin basic protein, the “endocrinologic effect on blood glucose” value in the experiment with NOD mice [4] (FIG. 2) is listed as “no drop in the blood glucose”.
